{
  "source": "patent US20150151008A1",
  "about": "“Contrast Media Taste Masking Formulations” (HOVIONE SCIENTIA LIMITED, priority 2013, published 2015)",
  "key": {"[1]": {"experiment": "Osmotic pressure (osmolality) in an osmometer", "format": "physicochemical", "protocol": "The osmotic pressure analysis measures the driving force of a solution to displace water molecules through a membrane from the medium in one side to the other. Considering the membrane is the esophageal epithelium, high osmolality means loss of water from the surrounding tissues to the GI tract. […] […] The osmolality of the powders produced through micro-encapsulation using spray congealing and spray drying were measured and compared to those of the pure contrast agents."}, "[2]": {"experiment": "Particle size and morphology by PLM / SEM imaging", "format": "physicochemical", "conditions": "raw, non-encapsulated iopamidol particles"}},
  "data": [
    {"smiles": "CC(=O)N(CC(O)CO)c1c(I)c(C(=O)NCC(O)CO)c(I)c(C(=O)NCC(O)CO)c1I", "note": "(centres unmarked) [Iohexol (raw), 1-N,3-N-bis(2,3-dihydroxypropyl)-5-[N-(2,3-dihydroxypropyl)acetamido]-2,4,6-triiodobenzene-1,3-dicarboxamide]", "values": [
      {"measurement": "mOsmol at 15 mg l/mL", "setting": "[1]", "result": 36, "unit": "mOsmol"},
      {"measurement": "mOsmol at 300 mg l/mL", "setting": "[1]", "result": 413, "unit": "mOsmol"}
    ]},
    {"smiles": "C[C@H](O)C(=O)Nc1c(I)c(C(=O)NC(CO)CO)c(I)c(C(=O)NC(CO)CO)c1I", "note": "[Iopamidol (raw), 1-N,3-N-bis(1,3-dihydroxypropan-2-yl)-5-[(2S)-2-hydroxypropanamido]-2,4,6-triiodobenzene-1,3-dicarboxamide]", "values": [
      {"measurement": "mOsmol at 15 mg l/mL", "setting": "[1]", "result": 30, "unit": "mOsmol"},
      {"measurement": "mOsmol at 300 mg l/mL", "setting": "[1]", "result": 572, "unit": "mOsmol"},
      {"measurement": "Diameter of iopamidol particles", "setting": "[2]", "result": "approximately 3 μm"}
    ]}
  ]
}
